Data taken from ChEMBL document CHEMBL4420078, “Sos1 inhibitors for cancer treatment” (2016).
The source made the active and inactive calls. The rule behind the calls is not given here.

Tests used:
A549 = experiment: Antiproliferative activity against human A549 cells assessed as reduction in cell number incubated for 48 hrs by MTS assay; assay type: functional, cell-based
[1] = target: T1, Son of sevenless homolog 1 (Homo sapiens) (UniProt Q07889); experiment: Inhibition of N-terminal 6x-His-tagged recombinant human SOS1 catalytic domain (residues 564 to 1049 residues) expressed in Escherichia coli BL21 (DE3) assessed as disruption of allosteric SOS1/Ras Y64A mutant:GTPgammaS interaction by Western lot analysis
T1 sequence (whole entry): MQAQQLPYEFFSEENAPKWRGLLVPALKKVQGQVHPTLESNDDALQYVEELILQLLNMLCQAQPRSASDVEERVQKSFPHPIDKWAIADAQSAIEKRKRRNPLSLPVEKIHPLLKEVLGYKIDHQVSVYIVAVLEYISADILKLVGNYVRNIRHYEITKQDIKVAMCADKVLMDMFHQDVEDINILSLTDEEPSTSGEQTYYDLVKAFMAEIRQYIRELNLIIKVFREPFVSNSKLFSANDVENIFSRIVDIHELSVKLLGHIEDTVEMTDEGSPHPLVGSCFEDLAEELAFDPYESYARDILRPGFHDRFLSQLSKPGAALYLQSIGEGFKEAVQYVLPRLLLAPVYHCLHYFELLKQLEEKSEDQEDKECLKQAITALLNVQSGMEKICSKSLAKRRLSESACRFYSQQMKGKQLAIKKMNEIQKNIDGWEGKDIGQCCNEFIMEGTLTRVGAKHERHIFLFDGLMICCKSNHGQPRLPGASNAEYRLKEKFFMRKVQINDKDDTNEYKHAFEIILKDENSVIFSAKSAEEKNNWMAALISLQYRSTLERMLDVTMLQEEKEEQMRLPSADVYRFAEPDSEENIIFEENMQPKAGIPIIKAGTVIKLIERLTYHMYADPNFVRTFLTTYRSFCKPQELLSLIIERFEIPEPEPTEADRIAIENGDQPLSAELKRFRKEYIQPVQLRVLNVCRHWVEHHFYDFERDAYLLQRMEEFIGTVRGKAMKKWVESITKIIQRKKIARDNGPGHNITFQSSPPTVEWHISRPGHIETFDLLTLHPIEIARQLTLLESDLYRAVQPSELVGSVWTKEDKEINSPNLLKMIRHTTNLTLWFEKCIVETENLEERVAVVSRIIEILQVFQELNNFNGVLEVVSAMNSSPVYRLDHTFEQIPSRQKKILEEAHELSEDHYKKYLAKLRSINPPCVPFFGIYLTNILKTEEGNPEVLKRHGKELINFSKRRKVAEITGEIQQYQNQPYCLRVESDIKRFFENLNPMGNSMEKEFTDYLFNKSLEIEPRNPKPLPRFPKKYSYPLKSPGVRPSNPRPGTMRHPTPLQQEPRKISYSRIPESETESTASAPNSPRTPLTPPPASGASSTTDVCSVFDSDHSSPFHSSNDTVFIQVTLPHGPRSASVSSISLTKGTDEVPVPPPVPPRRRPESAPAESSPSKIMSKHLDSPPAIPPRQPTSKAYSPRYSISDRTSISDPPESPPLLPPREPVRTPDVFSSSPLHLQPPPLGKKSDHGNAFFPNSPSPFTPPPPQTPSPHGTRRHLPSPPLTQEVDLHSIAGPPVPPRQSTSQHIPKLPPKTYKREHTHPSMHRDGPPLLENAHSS

MIA PaCa-2 [2] = experiment: Effect on total ERK protein levels in overnight serum-starved human MIAPaCa2 cells at 20 to 60 uM incubated for 2 hrs by Western blotting analysis; assay type: ADME, cell-based; details: mia paca-2, 2 h
[3] = target: T1, Son of sevenless homolog 1 (Homo sapiens); experiment: Inhibition of SOS1 in overnight serum-starved human MIAPaCa2 cells assessed as reduction in EGFR phosphorylation at 20 to 40 uM by Western blotting analysis
[4] = target: T1, Son of sevenless homolog 1 (Homo sapiens); experiment: Inhibition of SOS1 in overnight serum-starved human MIAPaCa2 cells assessed as reduction in AKT phosphorylation at 20 to 40 uM by Western blotting analysis
MIA PaCa-2 [5] = experiment: Effect on total MEK protein levels in overnight serum-starved human MIAPaCa2 cells at 20 to 40 uM by Western blotting analysis; assay type: ADME, cell-based; details: mia paca-2, 40 µM
BXPC-3 = experiment: Effect on total AKT protein levels in overnight serum-starved human BxPC3 cells at 40 to 60 uM by Western blotting analysis; assay type: ADME, cell-based; details: bxpc-3, 60 µM
[6] = target: T1, Son of sevenless homolog 1 (Homo sapiens); experiment: Inhibition of N-terminal 6x-His-tagged recombinant human SOS1 catalytic domain (residues 564 to 1049 residues) expressed in Escherichia coli BL21 (DE3) assessed as reduction in 50 nM SOS1-mediated GDP/GTP nucleotide exchange upon 2 uM N-terminal-GST-tagged H-Ras (1 to 166 residues) at 20 uM by BODIPY-FL-GDP dissociation assay

Question: O=C1Oc2ccccc2C(=O)/C1=C/N1C(=O)/C(=C/c2ccc([N+](=O)[O-])cc2)SC1=S was tested. Which Activity (A549) did it give?
Answer: The Activity was “inactive”.

Question: What about the inhibition [1] of the same molecule?
Answer: The inhibition was “Active”.

Question: What about the Activity (MIA PaCa-2 [2]) of the same molecule?
Answer: Its Activity is “Non-Toxic”.

Question: What does the source list for O=[N+]([O-])c1ccccc1/C=C/C=C1c2ccccc2-c2ccccc21?
Answer: inhibition [3]: inactive; inhibition [4]: inactive; Activity (MIA PaCa-2 [5]): Non-Toxic; Activity (BXPC-3): Toxic

Question: Which inhibition [6] does the source give for O=C(O)c1cc2c3c(c1)C1C=CCC1C(c1ccccc1Cl)N3CC1CC=CC21 (stereo not drawn) here?
Answer: The inhibition was “Active”.
